From patent US20040186066A1, “Method of treatment with nelfinavir” (AGOURON PHARMACEUTICALS, INC., priority 2003, published 2004)
Where a name gives a salt, the structure may show the parent alone. Read-outs that look alike come from different tables or passages of the source.

What was measured:
[1] = Example 1: phase I crossover food-effect study, single-dose pharmacokinetics of nelfinavir 250 mg tablets (total kilocalories and fat); type: in vivo, human (normal healthy volunteers); details: for half-life / AUC / Cmax / Tmax / AUC(0-t) / AUC(0-inf): human, plasma, 1250 mg; for AUC: read-out: AUC12; for AUC(0-t): read-out: AUC(0-tlqc), least-squares mean; for AUC(0-inf): read-out: AUC(0-∞) (AUCinf), least-squares mean
Description: A phase I, randomized, open-label crossover study to evaluate the impact of total kilocalories and fat content on single-dose pharmacokinetic parameters of the nelfinavir 250 mg tablet formulation in normal healthy volunteers was performed. Healthy volunteers entered the study and received the following treatment in random order at least 1 week apart: 1) 5×250 mg nelfinavir tablets, fasted 2) 5×250 mg nelfinavir tablets (breakfast meal 1, 125 Kcal/20% fat=low cal/low fat) 3) 5×250 mg nelfinavir tablets (breakfast meal 2, 500 Kcal/20% fat=medium cal/low fat) 4) 5×250 mg nelfinavir tablets (breakfast meal 3, 1000 Kcal/50% fat=high cal/high fat). Plasma concentrations of nelfinavir and its active hydroxy-t-butylamide metabolite (M8) were measured by validated high performance liquid chromatography (HPLC) methods. Pharmacokinetic parameters were determined from plasma concentration-time data using standard methods. Nelfinavir was administered as five 250-mg tablets with 240 mL of water. All subjects received a standardized snack the evening they were admitted to the in-patient facility. For the fasting evaluation, subjects were required to complete an overnight fast of at least 10 hours prior to dosing in the morning. For the fed pharmacokinetic evaluations, subjects were required to complete an overnight fast of at least 10 hours, prior to receiving the protocol-specific standardized breakfast meal (that is, Meal 1, Meal 2, or Meal 3). Subjects were given 30 minutes to complete their standardized breakfast meal. Dosing was performed in the morning, immediately following the subject's completion of the standardized breakfast meal and after the subject's pre-dose pharmacokinetic specimen had been collected. Subjects could not ingest water 1 hour prior to or 1 hour after dosing. A standardized lunch was given at least 4 hours after the morning dose and a standardized dinner was given at least 10 hours after the morning dose. For pharmacokinetic sampling, blood samples, 5 mL each, were collected into heparinized vacuum tubes (green top tubes) via an indwelling catheter or direct venipuncture. The actual time of each collection was recorded on the source document. The timing of each sample collection was as follows: predose and at 0.5, 1, 2, 3, 4, 6, 8, and 12 hours postdose on Days 1, 8,15, and 22. Pharmacokinetic parameter values were calculated using WinNonlin Pro Version 2.1. Individual nelfinavir plasma concentrations were used to predict steady-state plasma concentrations during BID administration with meals of various Kcal content. WinNonlin Pro Version 3.2 noncompartmental superposition was used for this simulation. Predicted steady-state Cmax and Cmin values were compared.

[2] = cited from earlier work
[3] = light breakfast 350 kcal/13 g fat vs standard breakfast 800 kcal/35 g fat; cited from earlier work
[4] = single dose; cited from earlier work
[5] = po, nelfinavir, 1250 mg single oral dose with high calorie/high fat meal (1000 Kcal/50% fat)
[6] = po, nelfinavir, 1250 mg single oral dose with low calorie/low fat meal (125 Kcal/20% fat)
[7] = po, nelfinavir, 1250 mg single oral dose with moderate calorie/low fat meal (500 Kcal/20% fat)
[8] = po, nelfinavir, 1250 mg single oral dose, fasting (reference)
[9] = nelfinavir, 125 kcal/20% fat relative to fasting
[10] = nelfinavir, 500 kcal/20% fat relative to fasting
[11] = nelfinavir, 1000 kcal/50% fat relative to fasting
[12] = nelfinavir, high calorie/high fat meal (1000 Kcal/50% fat) vs fasting
[13] = nelfinavir, low calorie/low fat meal (125 Kcal/20% fat) vs fasting
[14] = nelfinavir, moderate calorie/low fat meal (500 Kcal/20% fat) vs fasting

Cc1c(O)cccc1C(=O)N[C@@H](CSc1ccccc1)[C@H](O)CN1C[C@H]2CCCC[C@H]2C[C@H]1C(=O)NC(C)(C)C (relative stereo) [nelfinavir, [3S-(3R*, 4aR*, 8aR*, 2′S*, 3′S*)]-2-[2′ hydroxy-3′-phenylthiomethyl-4′-aza-5′-oxo-5′-(2″-methyl-3″-hydroxy-phenyl)pentyl]-decahydroiso-quinoline-3-N-t-butylcarboxamide methanesulfonic acid salt] showed a half-life ([1]; oral, nelfinavir, across fasting and the three meals, read-out: half-life (t½), range of mean values) of 3.6 to 5.6 h, an AUC ([1]; oral, nelfinavir, food intake 125 kcal/20% fat) of 20000 ng·h/mL and a Cmax ([1]; oral, nelfinavir, food intake 125 kcal/20% fat, read-out: Cmax (Table 5)) of 3160 ng/mL. For the same compound, the AUC ([1]; oral, nelfinavir, food intake 500 kcal/20% fat) was 25500 ng·h/mL, the Cmax ([1]; oral, nelfinavir, food intake 500 kcal/20% fat, read-out: Cmax (Table 5)) was 3670 ng/mL and the AUC ([1]; oral, nelfinavir, food intake 1000 kcal/50% fat) was 38900 ng·h/mL. The Cmax ([1]; oral, nelfinavir, food intake 1000 kcal/50% fat, read-out: Cmax (Table 5)) was 5200 ng/mL, the Tmax ([1]; oral, nelfinavir, high calorie meal, read-out: mean tmax longer relative to fasting subjects) was about 2 h and the Tmax ([1]; oral, nelfinavir, low calorie meal, read-out: mean tmax longer relative to fasting subjects) was about 1 h. It also gave a Tmax ([1]; oral, nelfinavir, moderate calorie meal, read-out: mean tmax longer relative to fasting subjects) of about 1.5 h, a Cmax ([1]; po, nelfinavir in plasma, 1250 mg single oral dose with high calorie/high fat meal (1000 Kcal/50% fat), read-out: Cmax, least-squares mean) of 5200 ng/mL and a Cmax ([1]; po, nelfinavir in plasma, 1250 mg single oral dose with low calorie/low fat meal (125 Kcal/20% fat), read-out: Cmax, least-squares mean) of 3160 ng/mL. It also gave a Cmax ([1]; po, nelfinavir in plasma, 1250 mg single oral dose with moderate calorie/low fat meal (500 Kcal/20% fat), read-out: Cmax, least-squares mean) of 3670 ng/mL, a Cmax ([1]; po, nelfinavir in plasma, 1250 mg single oral dose, fasting (reference), read-out: Cmax, least-squares mean) of 1570 ng/mL and an AUC(0-t) [1, 5] of 38900 ng·h/mL. For the same compound, the AUC(0-inf) [1, 5] was 55300 ng·h/mL, the half-life ([1]; po, nelfinavir, 1250 mg single oral dose with high calorie/high fat meal (1000 Kcal/50% fat), read-out: t1/2 (terminal half-life), least-squares mean (converted)) was 5.63 h and the Tmax ([1]; po, nelfinavir, 1250 mg single oral dose with high calorie/high fat meal (1000 Kcal/50% fat), read-out: tmax, least-squares mean) was 3.98 h. It also gave an AUC(0-t) [1, 6] of 20000 ng·h/mL, an AUC(0-inf) [1, 6] of 23100 ng·h/mL and a half-life ([1]; po, nelfinavir, 1250 mg single oral dose with low calorie/low fat meal (125 Kcal/20% fat), read-out: t1/2 (terminal half-life), least-squares mean (converted)) of 3.59 h. For the same compound, the Tmax ([1]; po, nelfinavir, 1250 mg single oral dose with low calorie/low fat meal (125 Kcal/20% fat), read-out: tmax, least-squares mean) was 3.02 h, the AUC(0-t) [1, 7] was 25500 ng·h/mL and the AUC(0-inf) [1, 7] was 33400 ng·h/mL. The half-life ([1]; po, nelfinavir, 1250 mg single oral dose with moderate calorie/low fat meal (500 Kcal/20% fat), read-out: t1/2 (terminal half-life), least-squares mean (converted)) was 4.77 h, the Tmax ([1]; po, nelfinavir, 1250 mg single oral dose with moderate calorie/low fat meal (500 Kcal/20% fat), read-out: tmax, least-squares mean) was 3.87 h and the AUC(0-t) [1, 8] was 9040 ng·h/mL. For the same compound, the AUC(0-inf) [1, 8] was 10600 ng·h/mL, the half-life ([1]; po, nelfinavir, 1250 mg single oral dose, fasting (reference), read-out: t1/2 (terminal half-life), least-squares mean (converted)) was 4.1 h and the Tmax ([1]; po, nelfinavir, 1250 mg single oral dose, fasting (reference), read-out: tmax, least-squares mean) was 2.18 h. The AUC ([1]; po, nelfinavir, 1250 mg single oral dose, fasting) was 9040 ng·h/mL, the Cmax ([1]; po, nelfinavir, 1250 mg single oral dose, fasting, read-out: Cmax (Table 5)) was 1570 ng/mL and the “AUC(0-∞) (AUCinf), least-squares mean” value ([1]; nelfinavir, 1250 mg single oral dose with high calorie/high fat meal (1000 Kcal/50% fat)) was 55300 ng·h/mL. For the same compound, the “AUC(0-∞) (AUCinf), least-squares mean” value ([1]; nelfinavir, 1250 mg single oral dose with low calorie/low fat meal (125 Kcal/20% fat)) was 23100 ng·h/mL, the “AUC(0-∞) (AUCinf), least-squares mean” value ([1]; nelfinavir, 1250 mg single oral dose with moderate calorie/low fat meal (500 Kcal/20% fat)) was 33400 ng·h/mL and the “C12 (concentration at 12 hours postdose), mean” value ([1]; nelfinavir, 1250 mg single oral dose, 125 Kcal/20% fat) was 0.65 µg/mL. For the same compound, the “C12 (concentration at 12 hours postdose), mean” value ([1]; nelfinavir, 1250 mg single oral dose, 500 Kcal/20% fat) was 1.19 µg/mL, the “C12 (concentration at 12 hours postdose), mean” value ([1]; nelfinavir, 1250 mg single oral dose, 1000 Kcal/50% fat) was 2.07 µg/mL and the “C12 (concentration at 12 hours postdose), mean” value ([1]; nelfinavir, 1250 mg single oral dose, fasting) was 0.41 µg/mL. The “AUC12 (×fasting)” value [1, 9] was 2.2 X, the “AUCinf (×fasting)” value [1, 9] was 2.2 X and the “Cmax (×fasting)” value [1, 9] was 2.0 X. For the same compound, the “AUC12 (×fasting)” value [1, 10] was 2.8 X, the “AUCinf (×fasting)” value [1, 10] was 3.1 X and the “Cmax (×fasting)” value [1, 10] was 2.3 X. For the same compound, the “AUC12 (×fasting)” value [1, 11] was 4.3 X, the “AUCinf (×fasting)” value [1, 11] was 5.2 X and the “Cmax (×fasting)” value [1, 11] was 3.3 X. The “C12 values compared with Cmax in fasting subjects” value ([1]; nelfinavir, dose with the high calorie/high fat meal, FIG. 1) was “higher than Cmax values in fasting subjects”, the “mean Cmax higher relative to fasting subjects” value ([1]; nelfinavir, high calorie meal) was 3.3 fold and the “AUC(0-tlqc) ratio (100% × test/reference)” value [1, 12] was 430%. The “AUC(0-∞) ratio (100% × test/reference)” value [1, 12] was 520%, the “Cmax ratio (100% × test/reference)” value [1, 12] was 331% and the “t1/2 ratio (100% × test/reference)” value [1, 12] was 139%. The “tmax ratio (100% × test/reference)” value [1, 12] was 183%, the “mean Cmax higher relative to fasting subjects” value ([1]; nelfinavir, low calorie meal) was 2 fold and the “AUC(0-tlqc) ratio (100% × test/reference)” value [1, 13] was 221%. For the same compound, the “AUC(0-∞) ratio (100% × test/reference)” value [1, 13] was 218%, the “Cmax ratio (100% × test/reference)” value [1, 13] was 201% and the “t1/2 ratio (100% × test/reference)” value [1, 13] was 87.5%. The “tmax ratio (100% × test/reference)” value [1, 13] was 139%, the “bioavailability higher relative to fasting subjects, based on AUC(0-∞)” value ([1]; nelfinavir, meal 1 (125 Kcal/20% fat)) was 2.2 fold and the “bioavailability higher relative to fasting subjects, based on AUC(0-∞)” value ([1]; nelfinavir, meal 2 (500 Kcal/20% fat)) was 3.1 fold. For the same compound, the “bioavailability higher relative to fasting subjects, based on AUC(0-∞)” value ([1]; nelfinavir, meal 3 (1000 Kcal/50% fat)) was 5.2 fold, the “AUC increase over fasting state” value ([1]; nelfinavir, meals containing 500-1000 kcal and 20-50% fat) was 3-5 fold and the “mean Cmax higher relative to fasting subjects” value ([1]; nelfinavir, moderate calorie meal) was 2.3 fold. For the same compound, the “AUC(0-tlqc) ratio (100% × test/reference)” value [1, 14] was 282%, the “AUC(0-∞) ratio (100% × test/reference)” value [1, 14] was 314% and the “Cmax ratio (100% × test/reference)” value [1, 14] was 234%. For the same compound, the “t1/2 ratio (100% × test/reference)” value [1, 14] was 116%, the “tmax ratio (100% × test/reference)” value [1, 14] was 178% and the oral bioavailability ([2]; animals fasted overnight) was 29%. For the same compound, the oral bioavailability ([2]; fed rats, dogs and monkeys (meal 30 minutes before drug administration)) was 43%, the “AUC0-12h less with light breakfast than with standard breakfast” value [3] was 13% and the “effect of the two breakfasts on C1-hour post dose, Cmax and C12-hours” value [3] was “No significant effects”. The “AUC under fasting conditions as % of AUC with food” value [4] was 27-50%.
